Assays:
[1] = tested on: E30 monoclonal antibody-induced glomerulonephritis in Slc-Wistar rats; assay: Urinary protein excretion in E30 monoclonal antibody-induced glomerulonephritis rats; assay type: in vivo, rat; settings: urinary protein excretion on day 2 after E30 injection, compound-treated vs vehicle-treated group, oral, 100 mg once a day, first dose 2 hours before E30
Description: Five to eight weeks old male Slc-Wistar rats were used in the experiment.
In order to induce glomerulonephritis, E30 of 20 to 500 μg, preferably 50 to 200 μg, is intravenously injected to rats of five to eight weeks old. Test compounds of 0.1 to 500 mg, preferably 1 to 200 mg, are suspended with 3 to 10%, preferably 4 to 6%, gum arabic solution and the like, and are orally given 1 to 5 hours, preferably 1.5 to 3 hours, prior to E30 injection. Constant amount of test compounds are then consecutively given 1 to 3 times a day. Evaluation of test compounds are determined by the amount of urinary protein excretion 2 days after E30 injection when proteinuria reaches to the maximum level.
Determination of the amount of urinary protein excretion is performed by the collection of 24-hour urine samples with stainless metabolic cages followed by the measurement of the concentration of urinary protein. Blood samples obtained at the follow-up period are processed for the determination of blood urea nitrogen and plasma creatinine, which indicate renal function. As a marker of damaged renal tubules, urinary amounts of N-acetyl-D-glycosaminidase excretion is measured. Furthermore, to study the inhibitory effects of compounds on mesangial proliferation following E30 injection, the number of PCNA (proliferating cell nuclear antigen) positive cells per single glomerulus is counted. Morphological changes are observed with light and electron microscopy.
5-week-old male Slc-Wistar rats were reared under the conditions of room temperature of 25° C., 40-60% humidity and 12 hour cycles of light and darkness and fed on solid chow (CA-1, Clea Japan) and tap water ad libitum. After one week's preliminary rearing, each rat was housed in a stainless metabolic cage for acclimation for one week, and was used for experiment at 7 weeks of old (body weight: 150-180 g). E30 monoclonal antibody (J.J.N., vol. 36, p106, 1994) was diluted with saline at 100 μg/0.4 ml and was administered from tail vein at the volume of 0.4 ml/body. Compound (2) was suspended with 5% gum arabic solution and was given at the dose of 100 mg 2 hours before E30 injection. Subsequently, compound (2) of 100 mg was orally administered once a day from the next day. The rats were housed in stainless metabolic cages just after the administration of test compound, and then 24-hour urine samples were collected. After measuring the volume, the urine was centrifuged at 3000 rpm for 10 min at room temperature. […] Urinary protein was determined by pyrogallole red method (Micro TP-test Wako, Wako Zyunyaku). The amount of urinary protein excretion on day 2 in compound-treated group was compared with that in vehicle-treated one, and inhibitory ratio of urinary protein excretion was calculated. […]

[2] = target: T1, MMP-9 (Homo sapiens, UniProt P14780); assay: Assay for inhibitory activity against MMP-9; assay type: biochemical
T1 construct: made in house; host or cells: HT1080 human fibrosarcoma cells; endogenous protein secreted after TPA treatment and purified from conditioned medium
Description: (§1) Assay for Inhibitory Activities of MMP-9 and MMP-2
(§2) The enzymatic activity was analyzed on the method described by Knight, C. G., et al. (C. Graham Knight., Frances Willenbrock and Gillian Murphy: A novel coumarin-labelled peptide for sensitive continuous assays of the matrix metalloproteinases. FEBS Lett., 296 (1992) 263-266).
MMP-9 was purified by using a combination of procedures described in previous reports as follows. Yasunori Okada, Yukio Gonoji, Katsumi Naka, Katsuro Tomita, Isao Nakanishi, Kazushi Iwata and Taro Hayakawa: Matrix metalloproteinase 9 (92-kDa gelatinase/type IV collagenase) from HT1080 human fibrosarcoma cells. Purification and activation of the precursor and enzymic properties. J. Biol. Chem., 267 (1992) 21712-21719. Yasunori Okada, Tatsuhisa Morodomi, Jan J, Enghild, Ko Suzuki, Atsushi Yasui, Isao Nakanishi, Guy Salvesen and Hideaki Nagase: Matrix metalloproteinase 2 from human rheumatoid synovial fibroblasts. Purification and activation of the precursor and enzymic properties. Eur. J. Biochem. 194 (1990) 721-730. Robin V Ward, Rosalind M Hembry, John J Reynolds and Gillian Murphy: The purification of tissue inhibitor of metalloproteinase-2 from its 72 kDa progelatinase complex. Biochem. J. 278 (1991) 179-187.
Briefly, human fibrosarcoma ATCC HT1080 cell line was cultured to confluent in Dulbecco's Modified Medium (DMEM) containing 10% fetal-calf serum at 37° C. for 48 hours. Subsequently, the medium of confluent culture was changed to serum-free DMEM medium. To obtain MMP-9, Phorbol-12-myristate-13-acetate (TPA) must be added to this serum-free DMEM medium at a concentration of 50 ng/ml. The TPA treated medium was centrifuged at 3000 rpm for 15 min and the supernatant was concentrated to 450 ml by a Toyo-Roshi UP-20 apparatus with an ultrafiltration membrane. Then, proMMP-9 in this concentrated solution was purified by using columns of Gelatin-Sepharose and Concanavalin A-Sepharose. The pool containing proMMP-9 was dialyzed, concentrated (Toyo-Roshi UP-20) and applied to columns of Sephacryl S-200 and Green A matrix for the separation from TIMPs. The obtained proMMP-9 fraction was activated by TPCK-Trypsin (final conc. […] reaction mix.) for the assay.
(§3) MOCAc-Pro-Leu-Gly-Leu-A2pr(Dnp)-Ala-Arg-NH2 as a substrate was purchased from Petide Institute(Osaka pref., Japan). This substrate was dissolved in DMSO at a concentration of 1 mM.
(§4) Reaction buffer consists of 50 mM Tris-HCl buffer (pH 7.5) containing 10 mM CaCl2, 0.3 M NaCl, 0.005% Brij35 and 0.01% NaN3.
Assay Method of Inhibitory Activity Against MMP-9:
(§5) 1.0 μl of a tested compound in DMSO is added to 48.0 μl of a reaction buffer containing 0.08 μl of an enzyme solution. After standing for 60 minutes at room temperature, the reaction was started by adding 1.0 μl of a substrate solution. After incubation for 60 minutes at room temperature, 100 μl of 3% (v/v) AcOH for reaction stopping and measured a fluorescence with excitation and emission at 320 nm and 405 nm, respectively (Spectrophotofluorometer; Fluoroscan Ascent (Labsystem)).
(§6) The measurement of the inhibitory activities (IC50) was carried out in a following four methods;
(§7) A) Reaction with substrate, enzyme and inhibitor
(§8) B) Reaction with substrate and inhibitor, without enzyme
(§9) C) Reaction with substrate and enzyme, without inhibitor
(§10) D) Reaction with substrate only
(§11) IC50 values were calculated by using a following formula and each fluorescence values of above four methods (A to D).
(§12) % inhibition={1−(A−B)/(C−D)}×100
(§13) IC50 means the concentration required to inhibit 50% of the enzyme activity.

[3] = target: T2, MMP-2 (Homo sapiens, UniProt P08253); assay: Assay for inhibitory activity against MMP-2; assay type: biochemical
T2 construct: purchased Yagai (Yamagata pref., Japan)
T2 sequence (P08253 110-660): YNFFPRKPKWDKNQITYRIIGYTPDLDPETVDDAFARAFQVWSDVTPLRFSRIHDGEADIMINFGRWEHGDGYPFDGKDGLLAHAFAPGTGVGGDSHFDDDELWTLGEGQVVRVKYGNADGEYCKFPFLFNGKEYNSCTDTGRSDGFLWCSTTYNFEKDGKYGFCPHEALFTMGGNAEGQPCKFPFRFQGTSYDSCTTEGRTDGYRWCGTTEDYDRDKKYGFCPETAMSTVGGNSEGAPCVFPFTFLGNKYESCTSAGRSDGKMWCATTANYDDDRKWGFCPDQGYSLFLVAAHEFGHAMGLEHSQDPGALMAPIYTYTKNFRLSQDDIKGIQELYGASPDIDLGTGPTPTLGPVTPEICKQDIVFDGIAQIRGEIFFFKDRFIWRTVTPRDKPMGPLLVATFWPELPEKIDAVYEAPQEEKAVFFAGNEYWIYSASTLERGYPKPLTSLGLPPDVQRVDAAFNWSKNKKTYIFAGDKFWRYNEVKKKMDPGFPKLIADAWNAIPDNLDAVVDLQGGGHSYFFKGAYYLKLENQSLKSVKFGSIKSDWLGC
Description: as §1, §2
MMP-2 was purchased from Yagai (Yamagata pref., Japan).
as §3, §4
Assay Method of Inhibitory Activity Against MMP-2:
as §5, with “0.05” for “0.08”
as §6, §7, §8, §9, §10, §11, §12, §13

T1 sequence (P14780 107-707 limits assumed): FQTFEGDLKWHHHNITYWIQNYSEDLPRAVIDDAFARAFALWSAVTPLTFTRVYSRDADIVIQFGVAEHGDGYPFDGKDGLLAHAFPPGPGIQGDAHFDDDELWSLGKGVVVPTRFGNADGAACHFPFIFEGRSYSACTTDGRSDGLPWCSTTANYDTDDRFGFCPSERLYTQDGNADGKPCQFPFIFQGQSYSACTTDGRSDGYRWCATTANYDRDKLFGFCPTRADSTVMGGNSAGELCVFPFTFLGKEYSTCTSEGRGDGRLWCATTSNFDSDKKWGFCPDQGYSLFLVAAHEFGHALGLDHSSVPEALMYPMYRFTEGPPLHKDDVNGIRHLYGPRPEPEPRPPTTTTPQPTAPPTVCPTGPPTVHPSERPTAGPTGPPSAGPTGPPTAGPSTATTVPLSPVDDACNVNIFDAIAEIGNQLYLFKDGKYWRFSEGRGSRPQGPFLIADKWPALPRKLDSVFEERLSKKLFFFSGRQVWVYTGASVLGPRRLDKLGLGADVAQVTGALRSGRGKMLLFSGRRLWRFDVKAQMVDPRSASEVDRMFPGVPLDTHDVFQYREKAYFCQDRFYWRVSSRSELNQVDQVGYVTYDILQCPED

IC50 [2] [nM]	IC50 [3] [nM]	melting point [°C]	Structure (SMILES)	Inhibitory rate (%) of urinary protein excretion [1] [%]
31.2	9.92	187 to 189	CCc1ccc(-c2nnn(-c3ccc(S(=O)(=O)N[C@H](Cc4ccccc4)C(=O)O)cc3)n2)cc1 [Compound 108]	35
316	27.8	194 to 195	C[C@@H](NS(=O)(=O)c1ccc(-n2nnc(-c3ccc(F)cc3)n2)cc1)C(=O)O [Compound 114]	2.7

From US6423729B1, “Therapeutic or prophylactic agent for glomerulopathy” (Shionogi & Co., Ltd., priority 1997, dated 2002)
